Measured values published in patent US4281121A, “1,3,4-Thiadiazole-2-carboxylic acid derivatives, process for making the same and fungicidal and nematocidal compositions containing same” (Schering Aktiengesellschaft, priority 1978, dated 1981).
Read-outs that look alike come from different tables or passages of the source.

Experiments:
[1] = tested on: Pythium ultimum; test: Threshold concentration test for use of the compounds against Pythium ultimum (infested soil, garden peas); type: in vivo; set-up: key to root evaluation (1-4): 4: white roots without fungous necrosis; 3: white roots, minor fungous necrosis; 2: brown roots, already more pronounced fungous necrosis; 1: heavy fungous necrosis, roots rotted; details: for root evaluation (1-4): 3 weeks; for number of sound peas: 20 grains per dish, 3 weeks at 20-24° C.
Outline: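 Pulverulent agents at 20% concentration mixed evenly into soil heavily infested with Pythium ultimum, then garden peas ('Wunder von Kelvedon', 20 per dish) sown at once. After three weeks at 20–24 °C in a hothouse, sound peas counted and roots scored on a 1–4 scale.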

[2] = tested on: Penicillium digitatum; test: Inhibition of fungus in a nutrient solution: Penicillium digitatum; type: cell-based; details: 6 days at 21-23° C.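 Further: 0 means no fungus growth and higher grades mean more surface covered.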
[3] = tested on: Botrytis cinerea; test: Inhibition of fungus in a nutrient solution: Botrytis cinerea; type: cell-based; details: 6 days at 21-23° C.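 Further: 0 means no fungus growth and higher grades mean more surface covered.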
[4] = tested on: Alternaria solani; test: Inhibition of fungus in a nutrient solution: Alternaria solani; type: cell-based; details: 6 days at 21-23° C.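 Further: 0 means no fungus growth and higher grades mean more surface covered.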
[5] = tested on: Fusarium avenaceum; test: Inhibition of fungus in a nutrient solution: Fusarium avenaceum; type: cell-based; details: 0.004%, 6 days at 21-23° C.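 Further: 0 means no fungus growth and higher grades mean more surface covered.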
Outline: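 Grape juice/water (1:1) nutrient solution mixed with powdered test agent, then inoculated with conidia. Surface fungal growth scored on a 0–5 scale after 6 days at 21–23 °C.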

[6] = tested on: Piricularia oryzae; type: in vivo; details: 5 days
[7] = tested on: Tilletia caries; test: Seed treatment in open field tests regarding infestation by Tilletia caries (oats); type: in vivo; details: summer oats; 50 g active agent/100 kg; about 4 months
[8] = tested on: Helminthosporium gramineum; test: Seed treatment in open field tests for infestation by Helminthosporium gramineum (barley); type: in vivo
Description: Seed treatment in open field tests for infestation by Helminthosporium gramineum
The active agents were used in the form of pulverulent compositions. After about 8 months in case of winter barley and after about 3 months in case of summer barley the infested plants were counted and the activity was calculated by the formula [formula]

[9] = tested on: Ustilago avenae; test: Oat seed treatment for Ustilago avenae; type: in vivo; details: 100 g active agent/100 kg; 10 weeks
[10] = tested on: Fusarium nivale; test: Treatment of rye seeds against Fusarium nivale; type: in vivo; details: 100 g/100 kg; about 4 weeks
Description: Treatment of rye seeds against Fusarium nivale
Rye seeds with a natural infestation by Fusarium nivale were seeded in earth filled pots and left for germination at about 6° C. Part of the seeds was treated before seeding with the active agents as appears from the subsequent table and part was untreated. After emergence of the seedlings the plants were illuminated with artificial light for 12 hours each day. After about 4 weeks the degree of infestation was determined in percentages. The fungicidal activity was calculated on the basis of the following formula: [formula]
The active agents were used in the form of 20% concentration compositions.

[11] = tested on: Venturia inaequalis; test: Prophylactic leaf treatment of apples in open field test against Venturia inaequalis; type: in vivo; details: 3 weeks
[12] = tested on: Ustilago nuda tritici; test: Treatment of wheat seeds in open field tests against Ustilago nuda tritici; type: in vivo; details: winter wheat; 100 g/100 kg seeds; eight months
Description: (§1) Treatment of wheat and barley seeds in open field tests against Ustilago nuda
(§2) Winter wheat seeds which had been infested with the smut cause Ustilago nuda tritici and winter barley seeds infested with Ustilago nuda nuda were treated with the agents listed in the table below and were seeded at seeding time in open fields. As a control untreated seeds were likewise included in the seed. After eight months the affected heads were counted for each test group and their proportion was calculated in order to find the fungicidal activity by the following formula: [formula]
(§3) The active compounds were employed in the form of 20% concentration powder compositions.

[13] = tested on: Ustilago nuda nuda; test: Treatment of barley seeds in open field tests against Ustilago nuda nuda; type: in vivo; details: winter barley; 100 g/100 kg seeds; eight months
Description: as §1, §2, §3

[14] = tested on: Helminthosporium gram; details: about 5 weeks
Description: Treatment of barley seeds infested with Helminthosporium gram
After emergence, the plants were subjected to illumination for 12 hours per day. After about 5 weeks the infested plants were counted and the total number of plants for each test were also counted. The active agents tested were used as pulverulent compositions.

CC(C)CS(=O)(=O)c1nnc(C(N)=O)s1 [5-isobutylsulfonyl-1,3,4-thiadiazole-2-carboxamide]
root evaluation (1-4) ([1]; 20 mg/l soil): 1
number of sound peas ([1]; 20 mg/l soil): 15
root evaluation (1-4) ([1]; 40 mg/l soil): 4
number of sound peas ([1]; 40 mg/l soil): 18
root evaluation (1-4) ([1]; 80 mg/l soil): 4
number of sound peas ([1]; 80 mg/l soil): 18
fungus development on the surface of the nutrient solution (0-5) ([2]; 0.002%): 1
fungus development on the surface of the nutrient solution (0-5) ([2]; 0.004%): 0
fungus development on the surface of the nutrient solution (0-5) ([3]; 0.002%): 2 (5 to 10% of the surface covered by the fungus turf)
fungus development on the surface of the nutrient solution (0-5) ([3]; 0.004%): 1
fungus development on the surface of the nutrient solution (0-5) ([4]; 0.002%): 0
fungus development on the surface of the nutrient solution (0-5) ([4]; 0.004%): 0
fungus development on the surface of the nutrient solution (0-5) [5]: 0
% activity ([6]; concentration of active agent 0.02 (percentages)): 65%
% activity ([6]; concentration of active agent 0.1 (percentages)): 90%
% activity [7]: 99%
% activity ([8]; summer barley, 50 g active agent/100 kg barley, about 3 months): 99.5%
% activity ([8]; summer barley, 100 g active agent/100 kg barley, about 3 months): 100%
% activity ([8]; winter barley, 50 g active agent/100 kg barley, about 8 months): 100%
% activity ([8]; winter barley, 75 g active agent/100 kg barley, about 8 months): 100%
% activity ([8]; winter barley, 100 g active agent/100 kg barley, about 8 months): 100%
% activity [9]: 87%
% activity [10]: 99.2%
% activity ([11]; concentration of active agent 0.005 (in gram)): 87%
% activity ([11]; concentration of active agent 0.025 (in gram)): 95%
% activity [12]: 75%
% activity [13]: 79%
% activity ([14]; 20 g active agent per 100 kg): 60%
% activity ([14]; 50 g active agent per 100 kg): 87%
